Reference: the supplement of paper PMC7224384

What was measured:
MDA-MB-453 [1] = assay: drug sensitivity score (DSS), single agent (DSS (weighted AUC score)); higher = more sensitive (stronger viability decrease); extreme values may be limits of the assay; settings: BLU9931 0 nM; 72 h
Procedure, shortened: (§1)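 Drug sensitivity scores come from a weighted area under a four-parameter logistic fit to percent viability, normalised per plate to control wells. Viability was based on cellular ATP read with CellTiterGlo 2.0 after 72 h at 37 °C, 5% CO2. Each 384-well plate carried FIMM Oncology set compounds in singlicate at five 10-fold dilutions, with 2000 MDA-MB-453 cells per well in medium with or without an FGFR4 inhibitor at 100 nM final.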

MDA-MB-453 [2] = assay: drug sensitivity score (DSS), in combination with BLU9931 (DSS (weighted AUC score)); higher = more sensitive (stronger viability decrease); extreme values may be limits of the assay; settings: BLU9931 100 nM; 72 h
Procedure, shortened: as §1

| Compound | drug sensitivity score (MDA-MB-453 [1]) | drug sensitivity score (MDA-MB-453 [2]) |
| --- | --- | --- |
| Cc1c(-c2ccc(N3CCc4cccc(C(=O)Nc5nc6ccccc6s5)c4C3)nc2C(=O)O)cnn1CC12CC3CC(CC(C3)C1)C2 | 1.4 | 5.4 |
| Cc1c(Cn2c(C)nc3c(C(=O)O)cc(N4CCOCC4)cc32)cccc1C(F)(F)F | 0 | 0 |
| Cc1ccc(C(=O)N(CCCN)[C@@H](c2oc3cc(Cl)ccc3c(=O)c2Cc2ccccc2)C(C)C)cc1 | 5.3 | 1.8 |
| Cc1cccc(CC(=O)N2CCc3c2ccc(-c2cn(C)c4ncnc(N)c24)c3F)n1 | 2.2 | 0 |
| Cc1nc(Nc2n[nH]c3c2CN(C(=O)N[C@H](CN(C)C)c2ccccc2)C3(C)C)c2sccc2n1 | 11.4 | 8.7 |
| Cc1ncc(Cl)cc1NCc1ccc(C(=O)N[C@@H](CC2CCCC2)C(=O)NC2CC2)s1 | 0 | 0.5 |
| Cc1nn(C)c(COc2ccc(N3CCN(S(=O)(=O)N(C)C)CC3)cc2)c1-c1cccc2c(CCCOc3cccc4ccccc34)c(C(=O)O)n(CCN3CCOCC3)c12 | 5.8 | 5.8 |
| Cn1cc(-c2ccc(F)c(C(F)(F)F)c2)nc1C1CCN(c2ncnc3[nH]ncc23)CC1 | 1.8 | 3.9 |
| Cn1cc(C2=Nc3cc(NC(=O)C(N)C4CCCCC4)cc4c3C2=CNNC4=O)cn1 (configuration not stated) | 14.4 | 9.9 |
| N#Cc1ccc(COC[C@H]2O[C@@H](n3c(NCc4ccc(Cl)c(Cl)c4)nc4c(N)ncnc43)[C@H](O)[C@@H]2O)cc1 | 4.9 | 4.2 |
| NCC(=O)Nc1ccc(-n2nc(C(F)(F)F)cc2-c2ccc3c(ccc4ccccc43)c2)cc1 | 2.1 | 0 |
| NC[C@@](O)(c1ccc(Cl)cc1)c1ccc(-c2cn[nH]c2)cc1 | 1.3 | 2.4 |
| Nc1nccc(-c2c(-c3ccc(F)cc3)ncn2C2CCCCC2)n1 | 1.1 | 0.6 |
| Nc1ncnc2c1c(COc1cccc(Cl)c1)nn2C1CCOCC1 | 0.9 | 0.9 |
| O=C(NC[C@H](O)CN1CCc2ccccc2C1)c1cc(NC2COC2)ncn1 | 3.9 | 4.3 |
| O=C(NCc1ccncc1)C12CC3CC(C1)CC(c1ccc(Cl)cc1)(C3)C2 | 1.1 | 0 |

| Compound | drug sensitivity score (MDA-MB-453 [1]) | drug sensitivity score (MDA-MB-453 [2]) |
| --- | --- | --- |
| O=C(NOC[C@H](O)CO)c1ccc(F)c(F)c1Nc1ccc(I)cc1F | 1.2 | 1.1 |
| O=C(Nc1ccc2[nH]nc(-c3ccncc3)c2c1)[C@@H]1CCN(CC(=O)N2CCN(c3ccc(-c4ncccn4)cc3)CC2)C1 | 3.4 | 0 |
| O=C(O)c1ccc(-c2c[nH]c3ncc(-c4ccccc4)cc23)cc1C1CCCC1 | 1.4 | 0.5 |
| O=C(O)c1ccc(CN2CCC(CN[C@@H]3C[C@H]3c3ccccc3)CC2)cc1 | 0.3 | 0 |
| O=C1Cc2cc(C(=O)NC3C[C@H]4CC[C@@H](C3)N4S(=O)(=O)CC3CCN(CCCC(F)(F)F)CC3)c(Cl)cc2N1 (some centres not stated) | 0 | 0 |
| O=c1[nH]c(C2CCCN2)nc2c1oc1ccc(Cl)cc12 (configuration not stated) | 0 | 0.5 |
| COc1ccc(C[C@H](NC(=O)[C@H](C)NC(=O)CN2CCOCC2)C(=O)N[C@@H](Cc2ccccc2)C(=O)C2(C)CO2)cc1 (stereo in doubt) [ONX-0914] | 14.7 | 13.8 |
| Cn1cc(C[C@@H](N)C(=O)O)c2ccccc21 [1-methyl-D-tryptophan] | 0.2 | 0 |
| CC/C(=C(\c1ccc(O)cc1)c1ccc(OCCN(C)C)cc1)c1ccccc1 [4-hydroxytamoxifen] | 4.8 | 4.5 |
| Nc1ncnc2c1nc(N)n2[C@@H]1O[C@H](CO)[C@@H](O)[C@H]1O [8-amino-adenosine] | 22.4 | 25 |
| Nc1ncnc2c1nc(Cl)n2[C@@H]1O[C@H](CO)[C@@H](O)[C@H]1O [8-chloro-adenosine] | 8.1 | 9.4 |
| COc1cc2c(cc1OCCCN1CCCC1)N=C(N)C21CCC1 [A-366] | 0 | 0 |
| COc1ccc(S(=O)(=O)Nc2cccnc2Nc2ccc(O)cc2)cc1 [ABT-751] | 7.4 | 7.9 |
| C[C@H](Nc1ncnc2[nH]cnc12)c1cc2ccc(F)cc2nc1-c1ccccn1 [AMG319] | 1.1 | 0.3 |
| CC(C)[C@@H](CS(=O)(=O)C(C)C)N1C(=O)[C@@](C)(CC(=O)O)C[C@H](c2cccc(Cl)c2)[C@H]1c1ccc(Cl)cc1 [AMG-232] | 0.2 | 0 |
